Source: US20150299125A1, “PRODRUG BIPYRIDYLAMINOPYRIDINES AS SYK INHIBITORS” (MERCK SHARP & DOHME CORP., priority 2012, published 2015)
In brackets after ≈: the same amount, converted by molar mass.

Experiments:
[1] = target: T1, recombinant human GST-Syk (Homo sapiens, UniProt P43405); assay: Homogeneous Time-Resolved Fluorescence (HTRF) assay for the recombinant human Syk enzyme; assay type: biochemical; conditions: recombinant human GST-Syk 5 pM, ATP 25 μM, read-out: IC50
T1 construct: purchased Carna Biosciences 08-176
How it was run: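 Recombinant GST-hSyk phosphorylates a biotinylated peptide for 45 min at room temperature. Quenched with EDTA buffer containing 2 nM Eu-anti-phosphotyrosine antibody and 70 nM SA-APC; HTRF read after 30 min.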

Blood stability assay = assay type: in vitro ADME; conditions: whole blood; human blood, 37° C.
Procedure: The likely stability of prodrugs in the blood can be estimated by incubating a prodrug with blood. A prodrug stock solution was prepared at 10 mM in DMSO and working solutions (100 μM) containing the prodrug were prepared by diluting a suitable amount of the stock solution with acetonitrile/water (50/50). 5 μL of the working solution were added to 495 μL of pre-warmed blood (at 37° C.). After vortexing and mixing, 50 μL of the spiked blood sample were taken for the 0 time point and transferred to another vial containing 200 μL of quenching solution (labetalol, alprazolam and diclofenac in 100% acetonitrile) ensuring that the vial is lidded to prevent evaporation and kept on ice. While keeping the spiked blood sample at 37° C. at the following timepoints (0.25, 0.5, 1, 2 and 3 h) 5 additional aliquots (50 μL) were sampled and mixed with the quenching solution. At the end of the experiment the quenched samples were vortexed for 2 minutes and centrifuged for 10 minutes at 4000 rpm. The supernatant (100 μL) was then transferred and collected into a new 96-well plate and injected into the LC-MS/MS for analysis. For each test compound, the area ratios at each time point to the 0 hour area ratio were compared and converted to a percentage remaining. The percentage remaining were then plotted against time (h) and half life generated using the following equation t½=0.693/kel. Where kel is the elimination rate constant which is determined from the concentration versus time curve by linear regression at the terminal phase of the semi-logarithmic plot.

[2] = Solubility in biorelevant fasted state simulated intestinal fluid (FaSSIF); assay type: physicochemical; conditions: 25 °C, fassif, kinetic from dmso stock, Solubility
How it was run: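 Compound from 10 mM DMSO stock diluted into FaSSIF (maximum solubility approximately 200 μM), equilibrated, then filtered by centrifugation through a 0.45 μm polypropylene membrane. Filtrate and a 100 μM standard analysed by HPLC/DAD; solubility = (sample peak area/standard peak area) × standard concentration.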

[3] = Conversion of prodrug to parent in liver homogenate; assay type: in vitro ADME; conditions: prodrug 1 μM, liver S9 1 mg protein/mL, 37° C., pH 7.4, 2 h
Procedure: Conversion of Prodrug to Parent in Liver Homogenate:
(§1) The likely stability of prodrugs in the liver can be estimated by incubating a prodrug with liver homogenate. Incubations of prodrugs (1 μM) with liver S9 (1 mg protein/mL) were carried out at 37° C. in a phosphate buffer, pH 7.4. Control incubations contained BSA (1.1 mg/mL) instead of liver S9 microsomes. Aliquots were removed at 0, 5, 15, 30, 60 and 120 min, treated with 4 volumes of acetonitrile containing 2% formic acid and an internal standard, and centrifuged. The supernatants were analyzed by LC-MS/MS for prodrug disappearance and appearance of active drug. The half-life of the prodrug was calculated from the % prodrug remaining at different time points calculated from on the peak area ratio relative to t=0. The amount of active drug generated at the different time points was determined using a standard curve.

[4] = Conversion of prodrug to parent in intestine homogenate; assay type: in vitro ADME; conditions: prodrug 1 μM, intestine S9 1 mg protein/mL, 37° C., pH 7.4, 2 h
Procedure: Conversion of Prodrug to Parent in Intestine Homogenate:
as §1, with “intestine” for “liver”

[5] = Conversion of prodrug to parent in in vitro biorelevant gastrointestinal tract media; assay type: in vitro ADME; conditions: 37° C.
Procedure: Conversion of Prodrug to Parent in In Vitro Biorelevant Gastrointestinal Tract Media: The likely stability of prodrugs in the gastrointestinal tract can be estimated by incubating a prodrug in simulated gastric and intestinal fluids; compounds were measured for stability in simulated gastric fluid (SGF), fasted state simulated intestinal fluid (FaSSIF), and fasted state simulated intestinal fluid plus pancreatin (FaSSIF+pancreatin). Prodrug stock solutions were made by diluting 2 mg of compound in 200 μL DMSO. A 10 mg/mL Pancreatin in FaSSIF stock solution was made by dissolving 10 mg Pancreatin in 1 mL FaSSIF. Samples were prepared by diluting 10 μL of compound stock solution into 990 μL of biorelevant media (990 μL SGF, 990 μL FaSSIF, or 940 μL FaSSIF plus 50 μL Pancreatin stock) in a 2 mL HPLC vial and vortexing the mixture for a few seconds. The samples were incubated at 37° C. and aliquots were removed for up to 24 hours and injected directly on an HPLC to determine the conversion of prodrug to active drug. In the case of compound precipitation upon sample preparation, an individual sample was prepared for each desired time point and the entire sample was diluted with a known volume of acetonitrile/water (50/50) to ensure compound dissolution before HPLC analysis.

| Compound | IC50 [1] [nM] | half-life at 1 μM (Blood stability assay) [min] | solubility [2] [µM] | Prodrug concentration at 2 h [3] [µM] | Prodrug concentration at 2 h [4] [µM] | Conversion in FaSSIF + Pancreatin, time ([5]; FaSSIF + pancreatin, 3 h) | Conversion in FaSSIF, time ([5]; FaSSIF, 5 h) | Conversion in SGF, time ([5]; simulated gastric fluid, 5 h) |
| --- | --- | --- | --- | --- | --- | --- | --- | --- |
| Cc1cc(Nc2cc(C(F)F)ccn2)nc(-c2ccc([C@](C)(O)[C@H]3CC[C@H](C(=O)OCCS(C)(=O)=O)CC3)nc2)c1 [Example 1-8, 2-(methylsulfonyl)ethyl trans-4-[(1R)-1-(6-{[4-(difluoromethyl)pyridin-2-yl]amino}-4-methyl-2,3′-bipyridin-6′-yl)-1-hydroxyethyl] cyclohexanecarboxylate] | 4 | 22 | – | – | – | – | – | – |
| CCOCCOCCOC(=O)OC(C)OC(=O)[C@H]1CC[C@H]([C@@](C)(O)c2ccc(-c3cc(C)cc(Nc4cc(C(F)F)ccn4)n3)cn2)CC1 (stereo partly drawn) [Example 2-14, 1-methyl-3-oxo-2,4,7,10-tetraoxadodec-1-yl trans-4-[(1R)-1-(6-{[4-(difluoromethyl)pyridin-2-yl]amino}-4-methyl-2,3′-bipyridin-6′-yl)-1-hydroxyethyl]cyclo hexanecarboxylate] | 30.4 | 199 | – | – | – | – | – | – |
| Cc1cc(Nc2cc(C(F)F)ccn2)nc(-c2ccc([C@](C)(O)[C@H]3CC[C@H](C(=O)OCOC(=O)CC(C)(C)O)CC3)nc2)c1 [Example 3-4, [(3-hydroxy-3-methylbutanoyl)oxy] methyl trans-4-[(1R)-1-(6-{[4-(difluoromethyl)pyridin-2-yl]amino}-4-methyl-2,3′-bipyridin-6′-yl)-1-hydroxyethyl]cyclohexane carboxylate] | 1.8 | 14 | 59 (≈ 36.1 µg/mL) | – | – | – | – | – |
| COCCOCCOCC(=O)OCOC(=O)[C@H]1CC[C@H]([C@@](C)(O)c2ccc(-c3cc(C)cc(Nc4cc(C(F)F)ccn4)n3)cn2)CC1 [Example 3-29, 3-oxo-2,5,8,11-tetraoxadodec-1-yl trans-4-[(1R)-1-(6-{[4-(difluoromethyl)pyridin-2-yl]amino}-4-methyl-2,3′-bipyridin-6′-yl)-1-hydroxyethyl]cyclohexane carboxylate] | 1.2 | 29 | 41 (≈ 27.6 µg/mL) | – | – | – | – | – |

Results, then the molecule that gave them:

| IC50 [1] [nM] | half-life at 1 μM (Blood stability assay) [min] | solubility [2] [µM] | Prodrug concentration at 2 h [3] [µM] | Prodrug concentration at 2 h [4] [µM] | Conversion in FaSSIF + Pancreatin, time ([5]; FaSSIF + pancreatin, 3 h) | Conversion in FaSSIF, time ([5]; FaSSIF, 5 h) | Conversion in SGF, time ([5]; simulated gastric fluid, 5 h) | Compound |
| --- | --- | --- | --- | --- | --- | --- | --- | --- |
| 9.1 | 16 | – | – | – | – | – | – | COCCN(C)C(=O)OCOC(=O)[C@H]1CC[C@H]([C@@](C)(O)c2ccc(-c3cc(C)cc(Nc4cc(C(F)F)ccn4)n3)cn2)CC1 [Example 4-2, {[(2-methoxyethyl)(methyl)carbamoyl]oxy}methyl trans-4-[(1R)-1-(6-{[4-(difluoromethyl)pyridin-2-yl]amino}-4-methyl-2,3′-bipyridin-6′-yl)-1-hydroxyethyl]cyclohexanecarboxylate] |
| < 0.5 | – | 154 (≈ 125 µg/mL) | 0 | 0 | – | – | – | Cc1cc(Nc2cc(C(F)F)ccn2)nc(-c2ccc([C@](C)(O)[C@H]3CC[C@H](C(=O)OCOC(=O)OCCOCCOCCOCCOP(=O)(O)O)CC3)nc2)c1 [Example 8-1, 17,17-Dihydroxy-17-oxido-3-oxo-2,4,7,10,13,16-hexaoxa-17λ^5-phosphaheptadec-1-yl trans-4-[(1R)-1-(6-{[4-(difluoromethyl)pyridin-2-yl]amino}-4-methyl-2,3′-bipyridin-6′-yl)-1-hydroxyethyl]cyclohexanecarboxylate] |
| < 0.5 | – | 161 (≈ 97.7 µg/mL) | 0.434 | 0.249 | 20%, 3 h | 0%, 5 h | 0%, 5 h | Cc1cc(Nc2cc(C(F)F)ccn2)nc(-c2ccc([C@](C)(O)[C@H]3CC[C@H](C(=O)OCCOP(=O)(O)O)CC3)nc2)c1 [Example 8-2, 2-(phosphonooxy)ethyl trans-4-[(1R)-1-(6-{[4-(difluoromethyl)pyridin-2-yl]amino}-4-methyl-2,3′-bipyridin-6′-yl)-1-hydroxyethyl]cyclohexane-carboxylate] |
